Data reported in patent US11266662B2, “Ganaxolone for use in prophylaxis and treatment of postpartum depression” (Marinus Pharmaceuticals, Inc., priority 2018, dated 2022).

Assay: Phase 2A study (Magnolia) in women with postpartum depression: ganaxolone plasma concentrations / pharmacokinetics
Details: female, human, plasma, iv
Procedure: Approximately 200 women with PPD 18 to 45 years of age are screened to randomize up to 100 subjects across up to 6 cohorts. Approximately 10-30 subjects are randomized into each cohort. Randomized subjects receive the investigational product (IP), ganaxolone or matching placebo in a 1:1 ratio. In Cohorts 1-5 the IP is administered intravenously over 60 hours. In Cohort 6 the dosing is initiated with a 6-hour intravenous (IV) infusion followed by oral dosing for 28 days plus 3-day taper.
Ganaxolone is infused at a rate of 4 mg/hr (16 ml/h of ganaxolone 0.25 mg/ml solution) for 48 hours and then, to minimize any risks for withdrawal or rebound of anxiety and depression symptoms, at a rate of 2 mg/hr for the next 12 hours. The infusion is stopped at 60 hours. Total of 9 subjects are dosed for this cohort.
Ganaxolone is infused at a rate of 8 mg/hr (16 ml/h of ganaxolone 0.5 mg/ml solution) for 48 hours and then at a rate of 4 mg/hr for the next 12 hours. This dose is approximately double the expected plasma exposure as compared to Cohort 1 at steady state (Cohort 2 expected plasma concentration ˜100-120 ng/mL). The infusion is stopped at 60 hours.
Twelve mg bolus of ganaxolone is initially given over 2 minutes followed by ganaxolone infusion at a rate of 12 mg/hr (24 ml/h of ganaxolone 0.5 mg/ml solution) for 48 hours. The rate is then reduced to 6 mg/hr for the next 12 hours, which is done to minimize any risks for withdrawal or rebound of anxiety and depression symptoms. The infusion is stopped at 60 hours.
In this cohort dosing is initiated with ganaxolone infusion at a rate of 20 mg/hr (40 ml/h of ganaxolone 0.5 mg/ml solution or matching placebo) for 6 hours followed by ganaxolone 900 mg (four 225 mg capsules per dose) or matching placebo capsules given orally at dinner time for 28 days followed by a 3-day taper (three, two, and one 225 mg capsule(s) per day, respectively).
This initial infusion is targeted to provide a fast onset of antidepressant activity by delivery of rapid plasma exposures to ganaxolone. Then, at dinner time of Day 1 the subjects take their first oral dose of ganaxolone 900 mg (four 225 mg capsules) or matching placebo (4 capsules). […] In previous studies, ganaxolone has been given up to a daily dose of 2000 mg, and at single doses of 1000 mg.
Six samples are collected for pharmacokinetic analysis in Cohorts 1-5 and 12 samples in Cohort 6. […] Seven samples are collected during the inpatient phase of Cohort 6 (including 6 samples on Day 1) followed by collection of 5 samples during the outpatient phase during the study visits for a total of 12 samples in Cohort 6.

CC(=O)[C@H]1CC[C@H]2[C@@H]3CC[C@H]4C[C@](C)(O)CC[C@]4(C)[C@H]3CC[C@]12C [ganaxolone, 3α-hydroxy-3β-methyl-5α-pregnan-20-one]
AUC (150 ug/kg, AUC12-24, calculated from Table 1C, dose 150 μg/kg/hr (row order of Table 1C)): 1810 ng·h/mL | AUC (150 ug/kg, AUC12-48, calculated from Table 1C, dose 150 μg/kg/hr (row order of Table 1C)): 5820 ng·h/mL | AUC (150 ug/kg, AUC24-48, calculated from Table 1C, dose 150 μg/kg/hr (row order of Table 1C)): 4010 ng·h/mL | AUC (160 ug/kg, AUC12-24, calculated from Table 1C, dose 160 μg/kg/hr (row order of Table 1C)): 1930 ng·h/mL | AUC (160 ug/kg, AUC12-48, calculated from Table 1C, dose 160 μg/kg/hr (row order of Table 1C)): 6210 ng·h/mL | AUC (160 ug/kg, AUC24-48, calculated from Table 1C, dose 160 μg/kg/hr (row order of Table 1C)): 4280 ng·h/mL | AUC (170 ug/kg, AUC12-24, calculated from Table 1C, dose 170 μg/kg/hr (row order of Table 1C)): 2050 ng·h/mL | AUC (170 ug/kg, AUC12-48, calculated from Table 1C, dose 170 μg/kg/hr (row order of Table 1C)): 6600 ng·h/mL | AUC (170 ug/kg, AUC24-48, calculated from Table 1C, dose 170 μg/kg/hr (row order of Table 1C)): 4550 ng·h/mL | AUC (180 ug/kg, AUC12-24, calculated from Table 1C, dose 180 μg/kg/hr (row order of Table 1C)): 2170 ng·h/mL | AUC (180 ug/kg, AUC12-48, calculated from Table 1C, dose 180 μg/kg/hr (row order of Table 1C)): 6980 ng·h/mL | AUC (180 ug/kg, AUC24-48, calculated from Table 1C, dose 180 μg/kg/hr (row order of Table 1C)): 4820 ng·h/mL | AUC (190 ug/kg, AUC12-24, calculated from Table 1C, dose 190 μg/kg/hr (row order of Table 1C)): 2290 ng·h/mL | AUC (190 ug/kg, AUC12-48, calculated from Table 1C, dose 190 μg/kg/hr (row order of Table 1C)): 7370 ng·h/mL | AUC (190 ug/kg, AUC24-48, calculated from Table 1C, dose 190 μg/kg/hr (row order of Table 1C)): 5080 ng·h/mL | AUC (200 ug/kg, AUC12-24, calculated from Table 1C, dose 200 μg/kg/hr (row order of Table 1C)): 2410 ng·h/mL | AUC (200 ug/kg, AUC12-48, calculated from Table 1C, dose 200 μg/kg/hr (row order of Table 1C)): 7760 ng·h/mL | AUC (200 ug/kg, AUC24-48, calculated from Table 1C, dose 200 μg/kg/hr (row order of Table 1C)): 5350 ng·h/mL | AUC (210 ug/kg, AUC12-24, calculated from Table 1C, dose 210 μg/kg/hr (row order of Table 1C)): 2530 ng·h/mL | AUC (210 ug/kg, AUC12-48, calculated from Table 1C, dose 210 μg/kg/hr (row order of Table 1C)): 8150 ng·h/mL | AUC (210 ug/kg, AUC24-48, calculated from Table 1C, dose 210 μg/kg/hr (row order of Table 1C)): 5620 ng·h/mL | AUC (220 ug/kg, AUC12-24, calculated from Table 1C, dose 220 μg/kg/hr (row order of Table 1C)): 2650 ng·h/mL | AUC (220 ug/kg, AUC12-48, calculated from Table 1C, dose 220 μg/kg/hr (row order of Table 1C)): 8540 ng·h/mL
